Measurements published in patent publication US6506607B1, “Methods and compositions for the identification and assessment of prostate cancer therapies and the diagnosis of prostate cancer” (Millennium Pharmaceuticals, Inc., priority 1997, dated 2003).

System: LNCaP cells
Test: Gene expression in bicalutamide-treated vs untreated LNCaP cells (subtraction library, Gene Expression Micro-Array)
Type: cell-based
Conditions: 25 hours

## CC(O)(CS(=O)(=O)c1ccc(F)cc1)C(=O)Nc1ccc(C#N)c(C(F)(F)F)c1 (centres unmarked) [bicalutamide, Bicalutamide]
SEQ ID NO 41, 100 nM bicalutamide
  FOLD INCREASE IN mRNA: Cyclin-dependent kinase inhibitor 1 {268652}: 4.5 fold
SEQ ID NO 42, 100 nM bicalutamide
  FOLD INCREASE IN mRNA: Activating transcription factor 3 (ATF3) {428248}: 11.5 fold
SEQ ID NO 43, 100 nM bicalutamide
  FOLD INCREASE IN mRNA: Defender against cell death 1 {488974}: 2.9 fold
SEQ ID NO 46, 100 nM bicalutamide
  FOLD INCREASE IN mRNA: CLCN3 {346749}: 2.4 fold
SEQ ID NO 47, 100 nM bicalutamide
  FOLD INCREASE IN mRNA: Phosphotyrosine independent ligand p62 for the Lck SH2 domain {510278}: 5.8 fold
SEQ ID NO 48, 100 nM bicalutamide
  FOLD INCREASE IN mRNA: Seryl-tRNA synthetase {510431}: 4.3 fold
SEQ ID NO 49, 100 nM bicalutamide
  FOLD INCREASE IN mRNA: D53 (hD53) {510461}: 3.8 fold
SEQ ID NO 50, 100 nM bicalutamide
  FOLD INCREASE IN mRNA: Unknown human protein {512334}: 3.5 fold
SEQ ID NO 51, 100 nM bicalutamide
  FOLD INCREASE IN mRNA: Thioredoxin reductase {510377}: 2.6 fold
SEQ ID NO 53, 100 nM bicalutamide
  FOLD INCREASE IN mRNA: ORF and HepG2 (identical sequence) {510258}: 5.3 fold
SEQ ID NO 54, 100 nM bicalutamide
  FOLD INCREASE IN mRNA: 4F2 cell-surface antigen heavy chain {510504}: 8.1 fold
SEQ ID NO 55, 100 nM bicalutamide
  FOLD INCREASE IN mRNA: Asparagine synthetase {510206}: 2.8 fold
SEQ ID NO 56, 100 nM bicalutamide
  FOLD INCREASE IN mRNA: pM5 {509550}: 2.3 fold
SEQ ID NO 57, 100 nM bicalutamide
  FOLD INCREASE IN mRNA: Archain {488510}: 2.3 fold
SEQ ID NO 58, 100 nM bicalutamide
  FOLD INCREASE IN mRNA: Gravin {488106}: 2.8 fold
SEQ ID NO 60, 100 nM bicalutamide
  FOLD INCREASE IN mRNA: Signal recognition particle receptor alpha subunit {358710}: 2.6 fold
SEQ ID NO 61, 100 nM bicalutamide
  FOLD INCREASE IN mRNA: Phosphoenolpyruvate carboxykinase {363272}: 3.4 fold
SEQ ID NO 62, 100 nM bicalutamide
  FOLD INCREASE IN mRNA: Protein translation factor SUI1 homolog {365542}: 2.7 fold
SEQ ID NO 63, 100 nM bicalutamide
  FOLD INCREASE IN mRNA: NADPH-flavin reductase {365775}: 3.7 fold
SEQ ID NO 64, 100 nM bicalutamide
  FOLD INCREASE IN mRNA: Peptidyl-prolyl CIS-trans isomerase B precursor {376399}: 2.5 fold
SEQ ID NO 65, 100 nM bicalutamide
  FOLD INCREASE IN mRNA: Aspartate aminotransferase {417270}: 3.1 fold
SEQ ID NO 66, 100 nM bicalutamide
  FOLD INCREASE IN mRNA: OS-9 precursor {417136}: 2.7 fold
SEQ ID NO 67, 100 nM bicalutamide
  FOLD INCREASE IN mRNA: KIAA0025 and PIGHEP3 homologous region {418227}: 5.3 fold
SEQ ID NO 68, 100 nM bicalutamide
  FOLD INCREASE IN mRNA: Glucosamine-fructose-6-phosphate aminotransferase {469633}: 3.2 fold
SEQ ID NO 69, 100 nM bicalutamide
  FOLD INCREASE IN mRNA: ADP-ribosylation factor 1 {471384}: 3.1 fold
SEQ ID NO 70, 100 nM bicalutamide
  FOLD INCREASE IN mRNA: Glycyl-tRNA synthetase {471164}: 3.6 fold
SEQ ID NO 71, 100 nM bicalutamide
  FOLD INCREASE IN mRNA: Prion protein (PrP) {470074}: 3.1 fold
SEQ ID NO 72, 100 nM bicalutamide
  FOLD INCREASE IN mRNA: Mitochondrial serine hydroxymethyltransferase {344080}: 2.4 fold
SEQ ID NO 73, 100 nM bicalutamide
  FOLD INCREASE IN mRNA: Alanyl-TRNA synthetase {343998}: 3.8 fold
SEQ ID NO 76, 100 nM bicalutamide
  FOLD INCREASE IN mRNA: Translocon-associated protein {324179}: 2.5 fold
SEQ ID NO 78, 100 nM bicalutamide
  FOLD INCREASE IN mRNA: Translation initiation factor 5 (elF5) {299843}: 2.3 fold
SEQ ID NO 79, 100 nM bicalutamide
  FOLD INCREASE IN mRNA: RESTIN {291620}: 2.3 fold
SEQ ID NO 80, 100 nM bicalutamide
  FOLD INCREASE IN mRNA: Transcription elongation factor S-II {257458}: 2.8 fold
SEQ ID NO 81, 100 nM bicalutamide
  FOLD INCREASE IN mRNA: Human clone 137308 {252491}: 2.6 fold
SEQ ID NO 82, 100 nM bicalutamide
  FOLD INCREASE IN mRNA: Glutamate-cysteine ligase regulatory subunit {245939}: 4.1 fold
SEQ ID NO 83, 100 nM bicalutamide
  FOLD INCREASE IN mRNA: Fatty aldehyde dehydrogenase {208950}: 3.1 fold
SEQ ID NO 84, 100 nM bicalutamide
  FOLD INCREASE IN mRNA: MHC class I HLA-Bw58 gene {203448}: 2.3 fold
SEQ ID NO 85, 100 nM bicalutamide
  FOLD INCREASE IN mRNA: Mitochondrial NDA (P)+ dependent malic enzyme {109375}: 2.5 fold
SEQ ID NO 136, 100 nM bicalutamide
  FOLD INCREASE IN mRNA: GADD 153 = Growth arrest and DNA-damage inductor gene {362009}: 11.1 fold
SEQ ID NO 137, 100 nM bicalutamide
  FOLD INCREASE IN mRNA: KIAA0025 gene {30476}: 6.7 fold
SEQ ID NO 138, 100 nM bicalutamide
  FOLD INCREASE IN mRNA: Phosphotyrosine independent ligand p62 for the Lck SH2 domain {471392}: 6.4 fold
SEQ ID NO 139, 100 nM bicalutamide
  FOLD INCREASE IN mRNA: 150 kDa oxygen-regulated protein ORP150 {486858}: 5.9 fold
SEQ ID NO 140, 100 nM bicalutamide
  FOLD INCREASE IN mRNA: 78 KD Glucose regulated protein precursor {366350}: 4 fold
SEQ ID NO 141, 100 nM bicalutamide
  FOLD INCREASE IN mRNA: Smad 1 {345928}: 3.9 fold
SEQ ID NO 142, 100 nM bicalutamide
  FOLD INCREASE IN mRNA: EST28g11 WATM1 {486703}: 3.8 fold
SEQ ID NO 143, 100 nM bicalutamide
  FOLD INCREASE IN mRNA: ESTs {322080}: 3.7 fold
SEQ ID NO 144, 100 nM bicalutamide
  FOLD INCREASE IN mRNA: Seryl-tRNA sythetase {129892}: 3.6 fold
